Test results published in patent publication US20130109581A1, “POSITIVELY CHARGED SPECIES AS BINDING REAGENTS IN THE SEPARATION OF PROTEIN AGGREGATES FROM MONOMERS” (priority 2009, published 2013).
Values joined by “and” are separate entries in the source; they are usually repeats but may differ in a detail not shown here. Identical values can stand only once.

Legend:
[1] = biological target: T1, E22K globulomer (beta amyloid 1-42, Italian mutation) (Homo sapiens, UniProt P05067, E693K); test: NMPA capture of E22K globulomer; assay type: binding; details: positively charged mutant; FIG. 10
T1 construct: Three beta amyloid 1-42 peptides were generated to test the role of E22; purchased Anaspec
Source text: Three beta amyloid 1-42 peptides were generated to test the role of E22: a wild-type peptide, a mutant peptide containing Arctic mutation E22G with a neutral charge, and a mutant peptide containing Italian mutation E22K with a positive charge. Synthetic peptides were commercially available from Anaspec.
Mutant peptides were oligomerized according to the methods described in Example 3.

Abeta 1-42 globulomer = biological target: T2, Abeta 1-42 globulomer (Homo sapiens, UniProt P05067); test: Globulomer capture assay in CSF (Example 6); assay type: binding
T2 construct: beta amyloid (1-42) was monomerized with incubation in hexafluoroisopropanol
Protocol: A series of new potential aggregate-specific binding reagents were designed as shown below and conjugated onto magnetic Dynal M270 beads as described in Example 2. Typically 7-12 nmol of ligand (each candidate aggregate-specific binding reagent) was coated onto 1 mg of beads.
Aliquots of the beads (typically 3 ul) were added to wells of a 96 well plate, followed by sample (with or without Abeta 1-42 globulomer (an Abeta42 oligomer model) spiked in 80:20 CSF:TBSTT, typically 125 ul). The plate was sealed and incubated for 1 hour at 37° C. with shaking. The plate was washed with aqueous solutions of detergent (typically polyethylene glycol sorbitan monolaurate and n-tetradecyl-N,N-dimethyl-3-ammonio-1-propanesulfonate) to remove ubound material and the residual buffer removed. A denaturing solution (typically 0.1-0.15 N NaOH) was added to each well and the plate heated to 80° C. for 30 min with shaking. After cooling the plate to room temperature, a neutralizing buffer (typically 0.12-0.18 M NaH2PO3 in 0.4% TWEEN20,) was added and the plate was shaken briefly at room temperature. The bead eluate was analyzed using either an Aβ42-specific ELISA or the MSD® 96-Well MULTI-SPOT® Human/Rodent [4G8] Abeta Triplex Ultra-Sensitive Assay from Meso Scale Discovery (Gaithersburg, Md.). For the Aβ42-specific assay, the samples were eluted from the beads and a detection antibody (4G8 HRP) was added to a plate bearing the Aβ42-specific antibody 12F4. The plate was incubated for 1 hour, washed, the substrate was added (SuperSignal West Femto Maximum Sensitivity Substrate from Thermo Fisher, Rockville, Md.), and the luminescence was measured. The MSD plate assay was performed in a similar fashion, according to the manufacturer's protocol.
In this experiment the preferred number of charges within a given scaffold was identified. An Ala/Lys peptide framework was utilized, where the inclusion of each Lys residue increases the peptides' net charge by +1. Six hexapeptides with increasing charge (+1→+6), AAAKAA, AAKKAA, AAKKKA, AKKKKA, AKKKKK, and KKKKKK, were prepared and conjugated on the beads. The ability of these beads to capture Abeta 1-42 globulomer spiked at 1 ng/mL into CSF was tested, and the result is shown in FIG. 25. The globulomer capture level (“42 1 ng/ml” or the closed bars) was compared to the background signal of Abeta 1-42 detected in the unspiked CSF (“42 0 ng/ml”) and the background signal of Abeta 1-40 detected in unspiked CSF (“40 0 ng/ml”) or CSF spiked with AB42 oligomers “40 1 ng/ml”. The charge density, as conjugated to the magnetic beads, of each reagent evaluated in this experiment is shown below in Table 8.

Aβ42 Fibrils = biological target: T3, Aβ42 Fibrils (Homo sapiens, UniProt P05067); test: Misfolded Protein Assay, LoD and capture in CSF: fibrils; assay type: binding; details: for LoD: spiked into CSF
T3 construct: The Ab42 aggregates were prepared as previously described
Protocol: (§1) The Ab42 aggregates were prepared as previously described: fibrils were prepared per Stine et al (JBC 2003, 278, p11612), globulomers were prepared per Barghorn et al (J Neurology 2005 95 p834), ADDLs were prepared per Lambert et al (PNAS 1998, 95 p6448), and ASPDs were prepared per Noguchi et al (JBC 2009 284 p32895). Normal CSF was pooled from clinically characterized non-demented patient CSF samples. AD CSF was pooled from clinically-characterized AD patient samples. Alzheimer's Disease Brain Homogenate (ADBH) was prepared by sonication of clinically diagnosed AD patient brain samples in 0.2M.sucrose (1:10 w/v).
(§2) For the capture assay (Misfolded Protein Assay), aliquots of the beads (30 ul) were added to wells of a 96 well plate, followed by 125 ul of sample in 80:20 CSF:TBSTT. The plate was sealed and incubated for 1 h at 37 C with shaking. The plate was washed with TBST and the residual buffer removed. A denaturing solution (0.1 N NaOH) was added to each well and the plate heated to 80 C. for 30 min with shaking. After cooling the plate to RT, a neutralizing buffer (0.12 M NaH2PO3-0.4% TW20,) was added and the plate shaken briefly at RT. The assay was analyzed using the triplex Mesoscale Discovery ELISA kit for Aβ. The Aβ in the samples eluted from the beads were detected per the manufacturer's protocol.
For the Limit of Detection (LoD) studies, serial dilutions of each aggregate were spiked into CSF and were assayed per the protocol described above. The LoD was defined as 2× over background levels.
This pattern minors the capture selectivity observed when these species are tested with 3 ul of PSR1 beads and 1 ng/mL of aggregate.

[2] = tested on: Alzheimer's Disease Brain Homogenate (ADBH) Aβ aggregates; test: Misfolded Protein Assay, LoD in CSF: ADBH; assay type: binding, human; details: spiked into CSF
Protocol: as §1
as §2, with “protocol. […]” for “protocol.”

[3] = biological target: T4, Aβ40 aggregates in AD CSF (Homo sapiens, UniProt P05067); test: Discrimination between AD and normal CSF; assay type: binding; details: FIG. 39
T4 construct: from tissue; host or cells: pooled cerebrospinal fluid (normal or AD)
Protocol: as §1, §2
For discriminating between AD and normal CSF, pooled normal CSF or pooled Alzheimer's Disease patient CSF, were assayed per the protocol described above.

263K prion infectivity = tested on: 263K prion infectivity; design: species or system Tg(SHaPrP) mice; details: mouse, in vivo

## Nab-Nab-Nab-Nbn-Nab-Nbn [PSR1]
[1]
  capture of E22K globulomer: captured efficiently
Abeta 1-42 globulomer; 1 ng/ml average reading, ratio of 42 to 40
  42:40 (signal:noise ratio): 4.1
Abeta 1-42 globulomer; Abeta 1-42 globulomer spiked at 1 ng/mL into CSF
  42, 1 ng/ml average reading: 970.5 RLUs
Aβ42 Fibrils; 3 ul of beads and 1 ng/mL of aggregate
  capture of Fibril: 3636
Aβ42 Fibrils
  LoD: <2 amol
Aβ42 Fibrils; LoD = 2× over background
  LoD: ~50 pg/mL and 50 pg/mL
[2]
  LoD: <0.2 amol
[3]
  Aβ40 signal in pooled AD CSF relative to normal pool: higher Aβ40 signal in positive pooled AD CSF relative to unmatched normal pool
263K prion infectivity
  125 μl pooled plasma corresponds to 30 μl of a dilution of 263 K hamster brain homogenate: 10^−8 dilution of 263 K and 10^−7 dilution of 263 K
  Attack rate (Clinical TSE/total inoculated): 100% (8/8) and 50% (2/4) and 100% (4/4) and 81% (13/16)
  Mean incubation period (days): 74 ± 3 dpi and 76 ± 5 dpi and 94 ± 5 dpi
  capture and transmission of prion infectivity: capture prion infectivity from prion-infected blood samples and transmit it with high efficiency to Tg(SHaPrP) mice
  incubation period (days): 56, 85 days
  mean incubation times: 74-94 days post inoculation
